Measured values taken from patent US20020137929A1, “1 - (3-heterocyclylphenyl) isothiourea, -isourea, -guanidine and -amidine herbicidal agents” (Intellectual Property Department, BASF Aktiengesellschaft, priority 1998, published 2002).

Key:
[1] = system: GLXMAW (Soybean, Williams); experiment: Postemergence herbicidal evaluation; assay type: in vivo, Glycine max, (L.) Merr. cv Williams; conditions: postemergence
Summary of the method: (§1)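 Visual 0–9 rating versus control (stand, vigor, malformation, size, chlorosis, overall appearance), taken four to five weeks post-spray. Two-week-old seedlings received roughly 0.0156–0.500 kg/ha active in acetone/water (50/50) with 0.5% TWEEN 20 via nozzle at 40 psi.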

GALAP (Galium) [2] = experiment: Postemergence herbicidal evaluation; assay type: in vivo, Galium aparine; conditions: postemergence
Summary of the method: as §1

[3] = system: SAGPY (Arrowhead (Pygmaea)); experiment: Preemergence weed control under flooded paddy conditions; assay type: in vivo, Sagittaria pygmaea; conditions: rated 3-4 weeks after treatment
Summary of the method: (§2)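 Visual injury scored 0-9 against control three to four weeks post-treatment, greenhouse-grown. Application: acetone/water (50/50) solutions dosed directly into flood water (1.5-3 cm over silt loam, planted top 0.5 cm), roughly 0.0313 to 0.500 kg/ha active ingredient.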

[4] = system: SAGPY (Arrowhead (Pygmaea)); experiment: Postemergence weed control under flooded paddy conditions; assay type: in vivo, Sagittaria pygmaea; conditions: postemergence weeds, 3-4 weeks after treatment
Summary of the method: (§3)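 Weeds 3 to 5 cm tall and rice seedlings at the 1.5 to 2.5 leaf stage were flooded, with water held 1.5 to 3 cm above the soil. Compounds in 50/50 v/v aqueous/acetone went into the flood water at about 0.0313 to 0.500 kg/ha. Visual 0-9 ratings versus control were made 3 to 4 weeks later.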

CYPSE (Flatsedge) = experiment: Preemergence weed control under flooded paddy conditions; assay type: in vivo, Cyperus serotinus; conditions: rated 3-4 weeks after treatment
Summary of the method: as §2

[5] = system: ECHORC (Watergrass (Calif.)); experiment: as above; assay type: in vivo, Echinochloa oryzoides; conditions: rated 3-4 weeks after treatment
Summary of the method: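 Seeds or propagules sown in top 0.5 cm of silt loam soil, flooded 1.5 to 3 cm above surface throughout. Compound in 50/50 v/v aqueous/acetone pipetted into flood water at about 0.0313 to 0.500 kg/ha. Visual 0-9 rating versus control after three to four weeks in greenhouse.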

[6] = system: ECHORC (Watergrass (Calif.)); experiment: Postemergence weed control under flooded paddy conditions; assay type: in vivo, Echinochloa oryzoides; conditions: postemergence weeds, 3-4 weeks after treatment
Summary of the method: as §3

MOOVA (Monochoria) = experiment: Preemergence weed control under flooded paddy conditions; assay type: in vivo, Monochoria vaginalis; conditions: rated 3-4 weeks after treatment
Summary of the method: as §2

[7] = system: TRZAWR (Wheat, Winter, cv Riband); experiment: Postemergence herbicidal evaluation; assay type: in vivo, Triticum aestivum; conditions: postemergence
Summary of the method: as §1

CASOB (Sicklepod) = experiment: Postemergence herbicidal evaluation; assay type: in vivo, Cassia obtusifolia; conditions: postemergence
Summary of the method: as §1

ORYSAT (Rice, Tebonnet) = experiment: Preemergence herbicidal evaluation; assay type: in vivo, Oryza sativa, (L.) Tebonnet; conditions: rated 4-5 weeks after treatment
Summary of the method: (§4)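 Seeds were mixed with potting soil and planted on about one inch of soil, then sprayed with test compound in aqueous acetone at about 0.0156 to 0.500 kg per hectare. Plants grew under standard greenhouse care and were visually rated 0-9 against untreated controls 4-5 weeks post-treatment.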

GALAP (Galium) [8] = experiment: Preemergence herbicidal evaluation; assay type: in vivo, Galium aparine; conditions: rated 4-5 weeks after treatment
Summary of the method: as §4

AMBEL (Ragweed, Common) = experiment: Postemergence herbicidal evaluation; assay type: in vivo, Ambrosia artemisifolia; conditions: postemergence
Summary of the method: as §1

SETVI (Foxtail, Green) = experiment: Preemergence herbicidal evaluation; assay type: in vivo, Setaria viridis; conditions: rated 4-5 weeks after treatment
Summary of the method: as §4

Q: With `CCOC(=O)CN1C(=O)C(CC(=O)O)S/C1=N/c1cc(-n2c(=O)cc(C(F)(F)F)n(C)c2=O)c(F)cc1Cl` (stereo not shown) [Compound 16] as the molecule, how does the GLXMAW herbicidal rating ([1]; rate 0.0157 kg/ha) read?
A: The GLXMAW herbicidal rating was 9.0.

Q: And the GLXMAW herbicidal rating ([1]; rate 0.0313 kg/ha)?
A: Its GLXMAW herbicidal rating is 8.6.

Q: What about the GLXMAW herbicidal rating ([1]; rate 0.0625 kg/ha) of the same molecule?
A: The GLXMAW herbicidal rating was 8.9.

Q: What about the GLXMAW herbicidal rating ([1]; rate 0.1250 kg/ha) of the same molecule?
A: The GLXMAW herbicidal rating was 9.0.

Q: What about the GLXMAW herbicidal rating ([1]; rate 0.2500 kg/ha) of the same molecule?
A: Its GLXMAW herbicidal rating is 9.0.

Q: What about the GALAP herbicidal rating (GALAP (Galium) [2]; rate 0.0157 kg/ha) of the same molecule?
A: Its GALAP herbicidal rating is 5.0.

Q: And the GALAP herbicidal rating (GALAP (Galium) [2]; rate 0.0313 kg/ha)?
A: Its GALAP herbicidal rating is 5.3.

Q: What about the GALAP herbicidal rating (GALAP (Galium) [2]; rate 0.0625 kg/ha) of the same molecule?
A: Its GALAP herbicidal rating is 6.8.

Q: And the GALAP herbicidal rating (GALAP (Galium) [2]; rate 0.1250 kg/ha)?
A: The GALAP herbicidal rating was 8.4.

Q: What about the GALAP herbicidal rating (GALAP (Galium) [2]; rate 0.2500 kg/ha) of the same molecule?
A: The GALAP herbicidal rating was 9.0.

Q: What about the “Herbicidal rating SAGPY” value ([3]; 0.0313 kg/ha) of the same molecule?
A: The value was 0.0.

Q: What about the “Herbicidal rating SAGPY” value ([3]; 0.0625 kg/ha) of the same molecule?
A: The value was 0.0.

Q: What about the “Herbicidal rating SAGPY” value ([3]; 0.1250 kg/ha) of the same molecule?
A: Its value is 0.0.

Q: And the “Herbicidal rating SAGPY” value ([3]; 0.2500 kg/ha)?
A: Its value is 0.0.

Q: And the “Herbicidal rating SAGPY” value ([4]; rate 0.0313 kg/ha)?
A: The value was 0.0.

Q: What about the “Herbicidal rating SAGPY” value ([4]; rate 0.0625 kg/ha) of the same molecule?
A: The value was 0.0.

Q: And the “Herbicidal rating SAGPY” value ([4]; rate 0.1250 kg/ha)?
A: Its value is 0.0.

Q: What about the “Herbicidal rating SAGPY” value ([4]; rate 0.2500 kg/ha) of the same molecule?
A: The value was 0.0.

Q: What about the “Herbicidal rating CYPSE” value (CYPSE (Flatsedge); 0.0313 kg/ha) of the same molecule?
A: Its value is 0.0.

Q: What about the “Herbicidal rating CYPSE” value (CYPSE (Flatsedge); 0.0625 kg/ha) of the same molecule?
A: Its value is 0.0.

Q: What about the “Herbicidal rating CYPSE” value (CYPSE (Flatsedge); 0.1250 kg/ha) of the same molecule?
A: The value was 0.0.

Q: What about the “Herbicidal rating CYPSE” value (CYPSE (Flatsedge); 0.2500 kg/ha) of the same molecule?
A: Its value is 0.0.

Q: And the “Herbicidal rating ECHORC” value ([5]; 0.0313 kg/ha)?
A: Its value is 0.0.

Q: And the “Herbicidal rating ECHORC” value ([5]; 0.0625 kg/ha)?
A: The value was 0.0.

Q: And the “Herbicidal rating ECHORC” value ([5]; 0.1250 kg/ha)?
A: The value was 0.0.

Q: And the “Herbicidal rating ECHORC” value ([5]; 0.2500 kg/ha)?
A: The value was 0.0.

Q: What about the “Herbicidal rating ECHORC” value ([6]; rate 0.0313 kg/ha) of the same molecule?
A: The value was 0.0.

Q: And the “Herbicidal rating ECHORC” value ([6]; rate 0.0625 kg/ha)?
A: The value was 0.0.

Q: And the “Herbicidal rating ECHORC” value ([6]; rate 0.1250 kg/ha)?
A: The value was 0.0.

Q: And the “Herbicidal rating ECHORC” value ([6]; rate 0.2500 kg/ha)?
A: The value was 0.0.

Q: What about the “Herbicidal rating MOOVA” value (MOOVA (Monochoria); 0.0313 kg/ha) of the same molecule?
A: Its value is 9.0.

Q: What about the “Herbicidal rating MOOVA” value (MOOVA (Monochoria); 0.0625 kg/ha) of the same molecule?
A: Its value is 9.0.

Q: And the “Herbicidal rating MOOVA” value (MOOVA (Monochoria); 0.1250 kg/ha)?
A: The value was 9.0.

Q: And the “Herbicidal rating MOOVA” value (MOOVA (Monochoria); 0.2500 kg/ha)?
A: Its value is 3.0.

Q: What about the TRZAWR herbicidal rating ([7]; rate 0.0157 kg/ha) of the same molecule?
A: The TRZAWR herbicidal rating was 7.5.

Q: And the TRZAWR herbicidal rating ([7]; rate 0.0313 kg/ha)?
A: The TRZAWR herbicidal rating was 6.5.

Q: What about the TRZAWR herbicidal rating ([7]; rate 0.0625 kg/ha) of the same molecule?
A: The TRZAWR herbicidal rating was 7.5.

Q: What about the TRZAWR herbicidal rating ([7]; rate 0.1250 kg/ha) of the same molecule?
A: Its TRZAWR herbicidal rating is 7.9.

Q: What about the TRZAWR herbicidal rating ([7]; rate 0.2500 kg/ha) of the same molecule?
A: The TRZAWR herbicidal rating was 8.5.

Q: What about the CASOB herbicidal rating (CASOB (Sicklepod); rate 0.0157 kg/ha) of the same molecule?
A: The CASOB herbicidal rating was 9.0.

Q: And the CASOB herbicidal rating (CASOB (Sicklepod); rate 0.0313 kg/ha)?
A: Its CASOB herbicidal rating is 6.2.

Q: What about the CASOB herbicidal rating (CASOB (Sicklepod); rate 0.0625 kg/ha) of the same molecule?
A: The CASOB herbicidal rating was 8.0.

Q: What about the CASOB herbicidal rating (CASOB (Sicklepod); rate 0.1250 kg/ha) of the same molecule?
A: The CASOB herbicidal rating was 9.0.

Q: What about the CASOB herbicidal rating (CASOB (Sicklepod); rate 0.2500 kg/ha) of the same molecule?
A: Its CASOB herbicidal rating is 9.0.

Q: What about the “ORYSAT preemergence herbicidal rating” value (ORYSAT (Rice, Tebonnet); rate 0.0156 kg/ha) of the same molecule?
A: The value was 0.1.

Q: What about the “ORYSAT preemergence herbicidal rating” value (ORYSAT (Rice, Tebonnet); rate 0.0313 kg/ha) of the same molecule?
A: Its value is 0.3.

Q: And the “ORYSAT preemergence herbicidal rating” value (ORYSAT (Rice, Tebonnet); rate 0.0625 kg/ha)?
A: Its value is 1.0.

Q: What about the “ORYSAT preemergence herbicidal rating” value (ORYSAT (Rice, Tebonnet); rate 0.1250 kg/ha) of the same molecule?
A: Its value is 2.2.

Q: And the “ORYSAT preemergence herbicidal rating” value (ORYSAT (Rice, Tebonnet); rate 0.2500 kg/ha)?
A: The value was 4.3.

Q: What about the “ORYSAT preemergence herbicidal rating” value (ORYSAT (Rice, Tebonnet); rate 0.5000 kg/ha) of the same molecule?
A: The value was 6.4.

Q: And the “GALAP preemergence herbicidal rating” value (GALAP (Galium) [8]; rate 0.0156 kg/ha)?
A: Its value is 1.2.

Q: What about the “GALAP preemergence herbicidal rating” value (GALAP (Galium) [8]; rate 0.0313 kg/ha) of the same molecule?
A: Its value is 2.0.

Q: And the “GALAP preemergence herbicidal rating” value (GALAP (Galium) [8]; rate 0.0625 kg/ha)?
A: Its value is 4.8.

Q: And the “GALAP preemergence herbicidal rating” value (GALAP (Galium) [8]; rate 0.1250 kg/ha)?
A: The value was 6.4.

Q: What about the “GALAP preemergence herbicidal rating” value (GALAP (Galium) [8]; rate 0.2500 kg/ha) of the same molecule?
A: The value was 8.2.

Q: What about the “GALAP preemergence herbicidal rating” value (GALAP (Galium) [8]; rate 0.5000 kg/ha) of the same molecule?
A: Its value is 9.0.

Q: And the AMBEL herbicidal rating (AMBEL (Ragweed, Common); rate 0.0157 kg/ha)?
A: Its AMBEL herbicidal rating is 9.0.

Q: And the AMBEL herbicidal rating (AMBEL (Ragweed, Common); rate 0.0313 kg/ha)?
A: The AMBEL herbicidal rating was 8.0.

Q: What about the AMBEL herbicidal rating (AMBEL (Ragweed, Common); rate 0.0625 kg/ha) of the same molecule?
A: The AMBEL herbicidal rating was 9.0.

Q: And the AMBEL herbicidal rating (AMBEL (Ragweed, Common); rate 0.1250 kg/ha)?
A: Its AMBEL herbicidal rating is 9.0.

Q: And the AMBEL herbicidal rating (AMBEL (Ragweed, Common); rate 0.2500 kg/ha)?
A: Its AMBEL herbicidal rating is 9.0.

Q: What about the “SETVI preemergence herbicidal rating” value (SETVI (Foxtail, Green); rate 0.0156 kg/ha) of the same molecule?
A: The value was 0.2.

Q: And the “SETVI preemergence herbicidal rating” value (SETVI (Foxtail, Green); rate 0.0313 kg/ha)?
A: The value was 1.0.

Q: What about the “SETVI preemergence herbicidal rating” value (SETVI (Foxtail, Green); rate 0.0625 kg/ha) of the same molecule?
A: The value was 3.7.

Q: And the “SETVI preemergence herbicidal rating” value (SETVI (Foxtail, Green); rate 0.1250 kg/ha)?
A: Its value is 7.5.

Q: What about the “SETVI preemergence herbicidal rating” value (SETVI (Foxtail, Green); rate 0.2500 kg/ha) of the same molecule?
A: Its value is 8.5.

Q: And the “SETVI preemergence herbicidal rating” value (SETVI (Foxtail, Green); rate 0.5000 kg/ha)?
A: The value was 8.9.
